Reference: patent publication US20050026846A1, “Pharmaceutical compositions comprising alkanoyl L-carnitine in combination with a statine for treating pathologies brought about by an altered lipid metabolism” (SIGMA-TAU INDUSTRIE FARMACEUTICHE RIUNITE S.p.A., priority 1997, published 2005)

Key:
Format in all cases: in vivo, human
[1] = system: hypertriglyceridaemic patients; assay: Clinical study: triglyceridaemia (blood-chemistry tests); settings: for Triglyceridaemia, statistical significance (p) vs baseline: propionyl L-carnitine 2 g/day, Student's t-test for paired data
Procedure: (§1) Eight hypertriglyceridaemic patients (3 males and 5 females) were recruited for the study, with a mean age of 65 years (range: 52-70), presenting mean triglyceridaemia values of 213.0±21.18 mg % and mean cholesterolaemia values of 158.1±25.90 mg %, who were put on a dietary regimen consisting in 40 Kcal/kg, 1.2 g/kg proteins and 1.4 g/kg lipids daily.
(§2) After baseline determinations of cholesterolaemia, triglyceridaemia, bilirubinaemia, alkaline phosphatase, protidaemia, GOT and GPT, all subjects took propionyl L-carnitine 2 g/day os for 60 days, which was discontinued on day 61 for a 30-day wash-out period. Simvastatin was then administered at a dose of 10 mg/day os in the evening for 30 days, followed by a further 30-day washout period and then by another 30-day period during which propionyl L-carnitine 1.5 g/day os and simvastatin 5 mg/day os were administered simultaneously.
(§3) Blood-chemistry tests were performed before and after each course of drug treatment and at the end of each wash-out period. The data obtained were subjected to statistical analysis using Student's t-test for paired data (Table 1).

[2] = system: hypertriglyceridaemic patients; assay: Clinical study: cholesterolaemia (blood-chemistry tests); settings: for Cholesterolaemia, statistical significance (p) vs baseline: propionyl L-carnitine 2 g/day, Student's t-test for paired data
Procedure: as §1, §2, §3

[3] = system: hypertriglyceridaemic patients; assay: Clinical study: side effects; settings: propionyl L-carnitine 2 g/day or 1.5 g/day os; simvastatin 10 or 5 mg/day os
Procedure: as §1, §2
All patients completed the study according to the procedures described. […] During the wash-out period the mean triglyceridaemia value recorded was 202.5±9.71 mg %, whereas the mean baseline value was 213.0±21.1 1 mg % (Table 2).

[4] = 30 days os, simvastatin 10 mg/day, combination 1.5 g/day + 5 mg/day

SMILES	Triglyceridaemia, statistical significance (p) vs baseline [1, 4]	Triglyceridaemia, statistical significance (p) vs baseline ([1]; 30 days os, simvastatin 10 mg/day, combination 1.5 g/day + 5 mg/day, listed as Propionyl L-carnitine)	Triglyceridaemia, statistical significance (p) vs baseline ([1]; 60 days os)	Triglyceridaemia, statistical significance (p) vs baseline ([1]; 60 days os, listed as Propionyl L-carnitine)	triglyceridaemia after treatment, significance (p): propionyl L-carnitine vs simvastatin ([1]; each administered alone)	Cholesterolaemia, statistical significance (p) vs baseline [2, 4]	Cholesterolaemia, statistical significance (p) vs baseline ([2]; 60 days os)	side effects attributable to the drugs during the study period [3]	mean post-treatment triglyceride value ([1]; after 30 days os, simvastatin 10 mg/day, or propionyl L-carnitine 1.5 g/day + simvastatin 5 mg/day, baseline 213.0±21.18 mg %, 8 patients) [mg %]	mean cholesterolaemia value after treatment ([2]; after 30 days os, simvastatin 10 mg/day, or propionyl L-carnitine 1.5 g/day + simvastatin 5 mg/day, baseline 158.12±25.90 mg %, 8 patients) [mg %]
CCC(=O)O[C@H](CC(=O)[O-])C[N+](C)(C)C [propionyl L-carnitine]	< 0.3671	p < 0.3671	< 0.0272	p < 0.0272	< 0.167	p < 0.4795	p < 0.0198	no side effects	–	–
CCC(C)(C)C(=O)O[C@H]1C[C@@H](C)C=C2C=C[C@H](C)[C@H](CC[C@@H]3C[C@@H](O)CC(=O)O3)[C@H]21 [simvastatin, reference compound]	–	–	–	–	–	p < 0.0585	–	–	193.8±22.63	156.75±22.82
